Our source for the melting point values is a melting point compilation (Tetko et al.; mined from patent text by program, amines drawn as free bases though some values may be those of a salt).

Structures are written as SMILES.

Take `COc1ccccc1NC(=O)Nc1ccc(C2CCN(C(=O)Nc3ccc(OCCO)cc3Cl)CC2)cc1`: the melting point (as a rule, the temperature of the solid-liquid transition) lay within 166 to 168 °C.
In turn, `COC(=O)Cn1c(-c2ccccc2Cl)nc2cccnc21` had a melting point of 198 to 200 °C.
In the case of `COC(=C(C#N)C(=O)Nc1ccccc1)c1cccn1C`, the melting point was in the range of 121 to 122 °C.
In the case of `O=C1Nc2ccc(-c3ccc(C=NO)c(F)c3)cc2C12CCCCC2`, the melting point lay in the range of 240 to 242 °C.
For `CCC(=O)c1cc(Br)no1` the value was 35 to 37 °C; for `Cc1nc[nH]c1CSCCNC1=Nc2ccccc2C(=O)C1`, 121 to 124 °C.
The compound `CC(=O)c1ccc(C(=O)c2ccc(O)c(CC(=O)O)c2)cc1` returned a melting point of 235 °C.
For `COc1ccc(C(=O)Nc2c(Cl)cncc2Cl)c2c3ccccc3n(Cc3ccccc3)c12` the value was 215 to 217 °C; for `N#CNC(=N)NCCN1CCC(C2(c3ccc(F)cc3)OCCO2)CC1`, 161 to 163 °C.
For `COc1ccccc1CNC(=O)c1oc(=O)c2ncccc2c1-c1ccc(C)cc1` the value was 189 to 190 °C; for `CC12CCC(=O)C=C1CCN(Cc1ccccc1)C2` (configuration not stated), 98 °C.
For `COc1cc(-c2nc3ccc(OCCN(C(C)C)C(C)C)cc3n2Cc2ccccc2C(F)(F)F)cc(OC)c1OC` the value was 184 °C.
Regarding `N=C(N)c1ccc(-c2ccc(N3CCN(CCC(=O)O)C3=O)cc2)cc1`, the melting point is greater than 200 °C.
For the compound `O=C(Nc1c(C(O)(C(F)(F)F)C(F)(F)F)ccc2ccccc12)c1cccc(Br)c1`, the melting point is 184 to 185 °C.
The same measure for `O=c1[nH]c2ccc(C3=NOC(CN4CCC(Cc5ccc(F)cc5)C(O)C4)C3)cc2o1` (configuration not stated): 224 to 233 °C; for `O=C(Cn1c(-c2ccc(Cl)cc2)ncc(NC(=O)OCc2ccccc2)c1=O)NC(Cc1ccccc1)C(=O)C(F)(F)F` (configuration not stated): 199 to 201 °C.
With `Cc1ccc(-c2ccc([C@H](C)N3CC[C@](CC(C)(C)O)(c4ccccc4)OC3=O)cc2)nn1`, the melting point lay in the range of 150 to 152 °C.
For `CCCCCC(=O)Nc1cccc2c1C1(COc3cc4c(cc31)OCCO4)C(=O)N2C` (configuration not stated) the value was 151 to 153 °C; for `CC(C)(O)COc1c(-c2ccc(S(N)(=O)=O)cc2)cnn(-c2ccc(F)c(F)c2)c1=O`, 65 to 69 °C.
In turn, `CCC1Cc2cc(C(C)C(=O)O)ccc2O1` (configuration not stated) had a melting point of 70 to 72 °C.
With `Cc1nc(CCO)c2n1-c1ccc(Cl)cc1C(c1ccccc1Cl)=NC2`, the melting point was 170 to 171 °C.
For `Cc1ccc(C(=O)c2cc([N+](=O)[O-])ccc2N2CCC(C)CC2)cc1` the value was 86 °C; for `Cn1nnc2cc3c(cc2c1=O)OC1CCCN1C3=O` (configuration not stated), 249 to 251 °C; for `CSc1nc(-c2ccc(C#N)cc2)cn1-c1ccc(C#N)cc1`, 209 to 219 °C.
The same measure for `COc1c(OCc2ccc(-c3ccccc3S(=O)(=O)Nc3noc(C)c3C)c(COCCF)c2)cc(C)nc1C`: 81 to 86 °C.
Compound `CCNC(=O)c1c(I)cccc1[Si](C)(C)C` displayed a melting point of 135 to 137 °C.
As for `CN(C)c1ccc(NC(=O)N(C[C@H]2CCC[C@H](CN(C(=O)Nc3ccc(N(C)C)cc3)C3CCCC3)C2)C2CCCC2)cc1` (relative stereo), the melting point fell in the range of 142 to 147 °C.
Compound `CON(C)C(=O)Nc1ccc(Oc2ccc3ccccc3c2)c(C(F)(F)F)c1` gave a melting point of 129 to 130 °C.
`CC(C)C1C(CO)=C(c2ccc(F)cc2)C=CN1C12CC3CC(CC(C3)C1)C2` (configuration not stated) registered a melting point of 143 to 145 °C.
The same measure for `CCCOc1cc(/C=C/C(=O)OCC)n(Cc2ccccc2)n1`: 56 to 57 °C; for `N#Cc1ccc(CCCCCC(=O)O)cc1`: 61 to 62 °C; for `O=[N+]([O-])c1ccc2c(c1)CN(C(c1ccccc1)c1ccccc1)C2`: 154 to 155 °C.
For `c1ccc2c(OC[C@H]3CCCN3c3ccnc4ncnn34)cccc2c1` the value was 74 to 75 °C.
`O=C(O)c1cccc(Nc2nc(Oc3ccccc3)nc(Oc3ccc(Cl)cc3)n2)c1` returned a melting point of 244 to 247 °C.
The compound `CC(C)(F)[C@H]1C(=O)N[C@@H]1CC(=O)O` (racemic) yielded a melting point of 118 to 122 °C.
The same measure for `O=C(O)CCSCc1nccc2ccccc12`: 126 to 130 °C; for `Cc1cc(-n2ccnc2)c2cccc(OCc3c(Cl)ccc(S(=O)(=O)N4CCC[C@H]4C(=O)NCCc4ccccn4)c3Cl)c2n1`: 82 °C.
Compound `Cn1ncc2c(=O)n3c(nc21)SCCCC3` registered a melting point of 157 °C.
For `COC(=O)C(NC(=O)C=Cc1ccccc1)C(=O)C(C)C` (configuration not stated) the value was 74 to 75 °C; for `COc1ccc(CC2SC(=O)NC2=O)cc1C(=O)NCc1ccc([N+](=O)[O-])cc1` (configuration not stated), 236 to 238 °C; for `Cc1ccc(-c2nnc(-c3ccco3)s2)cc1`, 111 to 113 °C.
In the case of `COc1cccc(Sc2ccc3c(c2)CC[C@H]2NC(=O)CC[C@]32C)c1`, the melting point was in the range of 154 to 156 °C.
As for `CN(C)C(c1cccs1)C1CCC(=NO)CC1` (configuration not stated), the melting point lay in the range of 118 to 121 °C.
Compound `C/C(NCC(C)C)=C(\C#N)C(N)=S` had a melting point of 165 to 167 °C.
For `COC(=O)C1=Cc2cc(Br)ccc2S(=O)(=O)CC1` the value was 162 to 164 °C.
The same measure for `COc1ccc2c(c1)C(c1ccc(N)cc1)=NN=C(C)C2`: 136 to 138 °C.
In turn, `O=C1NCCc2cc(Br)ccc21` displayed a melting point of 137 to 139 °C.
For `O=C(O)CCC(=O)c1ccc(O)c(Cl)c1` the value was 155 to 160 °C; for `NC(=O)N(O)Cc1ccc(N2CCC3(CC2)OCCO3)cc1`, 153 to 154 °C.
For `C=Cc1nn(Cc2ccc(C(=O)OC)cc2OC)c2cc(C(=O)NCC3CCCC3)ccc12` the value was 138 to 140 °C; for `O=C(CCC=C(c1ccccc1)c1ccccc1)NCCCCn1ccnc1`, 102 to 103 °C.
The same measure for `NS(=O)(=O)c1ccc(-n2nc(C=NOCc3ccccc3)cc2-c2ccc(Cl)cc2)cc1`: 158 to 159 °C; for `COC(=O)c1snc(-c2ccc(OC)cc2)c1N`: 129 to 131 °C; for `Cc1cc2c(c(C)c1S(=O)(=O)C[N+](=O)[O-])CCCS2(=O)=O`: 168 to 170 °C.
In the case of `CC(C)(C)[C@H]1CC[C@@H](Nc2ncnc(I)c2Cl)CC1`, the melting point lay within 89 to 90 °C.
The same measure for `COc1ccc2c(c1)c(CC(=O)O)c(C)n2Cc1ccccc1OC`: 176 to 180 °C; for `Cc1ccc(S(=O)(=O)OCC2COc3cc(Cl)c(Cl)cc3O2)cc1` (configuration not stated): 124 to 125 °C; for `COc1cc(CSCCC(=O)SCc2cc(OC)c(OC)c(OC)c2)cc(OC)c1OC`: 88 to 89 °C.
On to `CSc1nc(N)c([N+](=O)[O-])c(N2CCS(=O)CC2)n1`, for which the melting point was in the range of 239 to 242 °C.
For `CCOC(=O)C1CC(=C2CCN(c3ccccc3)C2=O)c2ccc(Cl)cc2N1` (configuration not stated) the value was 160 to 162 °C; for `O=C1N=CC(OCc2ccccc2)(C(F)(F)F)c2cc(Cl)ccc2N1` (configuration not stated), 177 to 178 °C.
Take `CCOC(=O)NN=Cc1cc(-n2c(=O)cc(C(F)(F)F)n(C)c2=O)ccc1Cl`: the melting point was 111 to 116 °C.
`CCOC(=O)/C=C/c1c(-c2ccccc2)c2c3ccccc3ccn2c1C(C)C` had a melting point of 145 to 146 °C.
With `CCOC(=O)Nc1nc(C)c(-c2nc3ccccc3c(=O)n2-c2ccccc2)s1`, the melting point is 248 to 251 °C.
For `N#Cc1cc(Cl)c(NC(=O)NC(=O)c2ccccc2Cl)cc1Cl` the value was 244 to 247 °C; for `COc1ccc(C(=O)N2c3ccccc3C(n3c4ccccc4c4ccccc43)CC2CCCCCN2CCN(c3ccc(F)cc3)CC2)cc1OC` (configuration not stated), 178 to 179 °C; for `CCCCOc1cc2c3c(ccc4c5ccc6c7c(cc(OCCCC)c(c1c34)c75)-c1ccccc1C6=O)C(=O)c1ccccc1-2`, 275 to 280 °C.
`CCCCc1ccc(NC(=O)c2ccc([N+](=O)[O-])cc2)cc1` registered a melting point of 151 to 152 °C.
The compound `COc1ccc(CC(S)C(N)=O)cc1C(=O)NCc1ccc(C(F)(F)F)cc1` (configuration not stated) returned a melting point of 159 to 161 °C.
The same measure for `Cc1cc(OC(=O)c2ccccc2)c2ccccc2c1O`: 172 to 174 °C.
As to `CN(C)CCc1[nH]c2ccccc2c1CSC1=NCCS1`, the melting point was in the range of 140 to 143 °C.
For `O=C1c2ccccc2CN1C1CCN(CCC2c3ccccc3-c3ccccc32)CC1` the value was 65 to 68 °C; for `Oc1cc(Cl)c(-n2cnnn2)cc1Oc1ccc(Cl)cc1Cl`, 147 to 148 °C.
The same measure for `CCNc1ccc2[nH]cc(C3CCN(C)CC3)c2n1`: 132 to 134 °C.
In turn, `CCSc1ccc2c3c(cccc13)C(=O)N2` yielded a melting point of 144 to 146 °C.
For `CSCc1c(C(F)(F)F)nn(C)c1O` the value was 123 to 124 °C; for `CCC1(CC)c2cc(-c3ccc(N(c4ccccc4)c4ccccc4)cc3)ccc2-c2ccc(-c3nc4ccccc4s3)cc21`, 206 to 208 °C.
The same measure for `COc1cc2c(cc1OC)CN(CCCc1ccc(NC(=O)c3cnc4ccccc4c3)cc1)CC2`: 184 to 185 °C; for `COc1c(C(=O)OCc2ccccc2)nc(-c2ccc(Cl)c(OC)c2F)c(F)c1N`: 119 °C.
In turn, `NC(=S)/C=C/c1cc([N+](=O)[O-])ccc1Cl` showed a melting point of 236 to 238 °C.
For `CCC(CC)n1cc(Br)nc(N2CCc3cc(Cl)cc(Cl)c32)c1=O`, the melting point lay in the range of 158 to 160 °C.
The compound `CC(=O)Nc1ccc(N2CCNC2=O)cc1` had a melting point of 270 to 273 °C.
`CCCCCCCCCCCCCCCCCCOc1cc(NC(C)=O)cc([N+](=O)[O-])c1` showed a melting point of 103 to 107 °C.
`O=C(CCCCCCC(=O)N1CCN(c2cccc(C(F)(F)F)c2)CC1)NO` returned a melting point of 126 to 128 °C.
`COc1cc(-c2nnn[nH]2)ccc1Cc1cn(C)c2ccc(NC(=O)CC3CCCC3)cc12` had a melting point of 242 to 243 °C.
As for `COC(=O)c1ccc2c(c1)Sc1ccccc1NC2=O`, the melting point fell in the range of 255 to 257 °C.
For `CCOc1ccccc1C(=O)Nc1ccc(C(=O)N2Cc3cccn3Cc3ccccc32)cc1` the value was 160 to 176 °C.
